For one series, the system named is p210Bcr-Abl (e14a2). The series can be described thus: Western blot of Bcr-Abl protein in 32Dp210/e14a2 cells after siRNA electroporation. In kind it is cell-based, murine. The conditions noted are these: for Bcr-Abl protein levels: 32Dp210/e14a2 cells. On the procedure: Protein assay: Western blot analysis was performed ˜24 h following the last siRNA -treatment or ˜96 hours following transfection with the pSUPER siRNA-expression vector as described (Goetz A W, et al., Cancer Res. 2001, 61:7635)
p210Bcr-Abl (e14a2), sequence (P11274+P00519 fused): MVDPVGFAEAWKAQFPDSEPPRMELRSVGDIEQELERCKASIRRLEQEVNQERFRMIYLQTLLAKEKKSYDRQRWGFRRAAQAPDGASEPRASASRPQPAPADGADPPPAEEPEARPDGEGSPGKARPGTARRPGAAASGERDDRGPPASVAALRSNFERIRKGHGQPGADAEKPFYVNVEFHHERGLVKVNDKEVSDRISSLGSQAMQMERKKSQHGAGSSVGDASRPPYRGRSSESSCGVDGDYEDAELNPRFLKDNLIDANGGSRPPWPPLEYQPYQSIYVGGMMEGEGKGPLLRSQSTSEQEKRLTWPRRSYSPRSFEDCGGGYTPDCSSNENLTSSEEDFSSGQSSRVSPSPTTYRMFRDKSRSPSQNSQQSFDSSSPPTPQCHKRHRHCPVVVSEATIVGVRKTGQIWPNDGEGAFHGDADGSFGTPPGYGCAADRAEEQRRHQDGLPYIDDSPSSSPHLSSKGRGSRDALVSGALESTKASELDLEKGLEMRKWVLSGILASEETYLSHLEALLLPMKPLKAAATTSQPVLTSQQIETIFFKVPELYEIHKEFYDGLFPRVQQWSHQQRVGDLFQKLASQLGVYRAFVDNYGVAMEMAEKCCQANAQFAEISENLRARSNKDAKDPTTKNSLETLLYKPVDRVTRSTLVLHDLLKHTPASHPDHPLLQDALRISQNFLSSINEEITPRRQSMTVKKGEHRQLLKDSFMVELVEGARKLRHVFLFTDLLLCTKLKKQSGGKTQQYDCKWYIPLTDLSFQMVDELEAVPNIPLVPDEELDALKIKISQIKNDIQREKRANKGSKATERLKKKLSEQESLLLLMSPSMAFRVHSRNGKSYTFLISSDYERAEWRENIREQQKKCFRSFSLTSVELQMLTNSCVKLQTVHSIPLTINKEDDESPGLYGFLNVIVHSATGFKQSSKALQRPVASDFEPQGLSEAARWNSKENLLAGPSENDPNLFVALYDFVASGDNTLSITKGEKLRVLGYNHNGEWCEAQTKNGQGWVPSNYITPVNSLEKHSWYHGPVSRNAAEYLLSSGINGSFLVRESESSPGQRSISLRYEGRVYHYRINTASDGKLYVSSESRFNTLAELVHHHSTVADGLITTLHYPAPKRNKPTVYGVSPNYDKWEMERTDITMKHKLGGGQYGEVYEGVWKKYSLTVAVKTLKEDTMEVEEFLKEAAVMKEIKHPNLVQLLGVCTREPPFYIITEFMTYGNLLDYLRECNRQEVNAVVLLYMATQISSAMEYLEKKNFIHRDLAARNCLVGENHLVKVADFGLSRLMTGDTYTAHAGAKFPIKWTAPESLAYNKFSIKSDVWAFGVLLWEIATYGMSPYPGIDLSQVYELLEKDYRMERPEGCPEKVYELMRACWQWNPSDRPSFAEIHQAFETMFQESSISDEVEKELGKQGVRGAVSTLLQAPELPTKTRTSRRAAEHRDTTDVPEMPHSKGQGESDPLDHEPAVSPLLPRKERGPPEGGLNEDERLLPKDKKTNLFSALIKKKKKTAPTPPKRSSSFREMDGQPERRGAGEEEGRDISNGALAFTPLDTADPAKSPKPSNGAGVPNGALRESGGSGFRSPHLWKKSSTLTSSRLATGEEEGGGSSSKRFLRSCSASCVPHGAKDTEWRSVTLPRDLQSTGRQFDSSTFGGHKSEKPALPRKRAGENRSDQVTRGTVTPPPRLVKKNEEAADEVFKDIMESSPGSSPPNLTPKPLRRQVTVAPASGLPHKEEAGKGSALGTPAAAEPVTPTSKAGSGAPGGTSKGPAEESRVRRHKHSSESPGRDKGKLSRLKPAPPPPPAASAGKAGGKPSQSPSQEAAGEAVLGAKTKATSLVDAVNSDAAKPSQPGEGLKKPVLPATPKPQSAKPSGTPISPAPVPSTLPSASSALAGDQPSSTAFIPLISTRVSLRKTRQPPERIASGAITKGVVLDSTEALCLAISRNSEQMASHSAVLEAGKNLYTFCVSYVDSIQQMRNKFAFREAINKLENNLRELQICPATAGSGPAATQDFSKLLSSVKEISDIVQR
(§1) siRNA-transfection: siRNAs were transfected into the murine cell lines 32Dp210Bcr-Abl-e14a2, -e13a2, 32Dp190Bcr-Abl-e1a2 and the human leukemic cell line MEG-01 using electroporation. Cell density was adjusted to 2.5-5×10^6/ml in RPMI/10% FCS. 800 μl of this cell suspension were mixed with siRNA in a 4 mm electroporation cuvette. Cells were electroporated by means of an EasyJect electroporator (peqlab, Erlangen, Germany) using a single-pulse protocol (250 V, 1800 μF, 8.). This treatment was repeated in intervals of 24 hours as indicated.
(§2) In 32Dp210Bcr-Abl-e14a2, -e13a2 and 32Dp190Bcr-Abl-e1a2 inhibition of Bcr-Abl can be compensated by addition of exogenous growth factor to the medium. Therefor, recombinant murine IL-3, (1 ng/ml) was added to the growth medium during siRNA treatment of these cell lines. Following the last siRNA treatment cells were washed and factor deprived before starting the different examination procedures (Western blot/MTT).
We used three murine hematopoetic 32D cell lines expressing either p210Bcr-Abl (e14a2), p210Bcr-Abl (e13a2) or p190Bcr-Abl (e1a2) to study the effectiveness of siRNAs to silence each of these human Bcr-Abl fusion breakpoint variants. In addition, experiments were performed in human Ph+leukemia cells (K562, MEG-01). All siRNAs used were directed to breakpoints of the Bcr and Abl sequence of the respective Bcr-Abl mRNA. RNAi-efficiency was assayed via analysis of Bcr-Abl protein levels and by monitoring the biological effect using MTT viability assay.

A further series concerns 32Dp210/e14a2 cells. The series is described as follows: MTT viability assay in 32Dp210/e14a2 cells after siRNA electroporation. In kind it is cell-based, murine. On the procedure: (§3) Survival Assay: Following the last siRNA treatment cells were seeded in 96 well plates and cultivated for another ˜48 hours. Cell survival was then measured by MTT assay as described (Van der Kuip H, et al., Blood. 2001, 98:1532)
as §1, §2
Background: Tetrazolium dyes change colour on reduction, which living cells bring about.

In a further series the test system is Bcr-Abl (e14a2). The series can be described thus: Western blot of Bcr-Abl protein in primary CD34 positive cells of CML patients (e14a2). It is filed as cell-based, human. The conditions noted are these: two electroporations, compared to BAF8 or BAF16. On the procedure: FIG. 4: CD34 positive cells isolated from 3 newly diagnosed and untreated Philadelphia chromosome-positive CML patients in chronic phase and positive for bcr-abl-e14a2 by Ficoll-Hypaque density gradient centrifugation and affinity column purification were treated with siRNAs BAF7 (e14a2 specific, Patient 1), BAF8 (mismatch control, Patient 1), BAF12 (e14a2 specific, Patient 2+3), and BAF16 (e13a2 specific, Patient 2+3). Cells were diluted to a density of 2.5×10^6 in 800 μl growth medium, mixed with 12.8 μl of a 50 μM solution of the respective siRNA in a 4-mm electroporation cuvette, and electroporated using a single pulse protocol (250V, 1800 μF). This treatment was repeated after 24 hours, the cells were washed, incubated for another 24 hours, and harvested for western blot analysis. […] Additionally, BAF12 treatment compromised Bcr-Abl activity.
Bcr-Abl (e14a2), sequence (P11274+P00519 fused): as above
CD34 positive cells were isolated from 3 newly diagnosed and untreated Philadelphia chromosome-positive CML patients in chronic phase. Informed consent was obtained by the patients prior to collection of cells. Mononuclear cells were harvested by Ficoll-Hypaque density gradient centrifugation (Seromed, Berlin, Germany). CD34 positive cells were isolated using a stem cell isolation kit and a MACS column (Miltenyi Biotech, Bergisch Gladbach, Germany) according to manufacturer's instructions. […]

The test system of the next series is K562 cells. The series can be described thus: Viability/growth of K562 cells after lipofection with siRNA. In kind it is cell-based, human. On the procedure:
as §3
For the transfection of siRNA molecules into the human K562 cells we used Lipofectamin™ 2000 (Invitrogen, Karlsruhe). 1.5 Mio. cells were plated in 1.5 ml RPMI/10% FCS w/o antibiotics into a 6 well plate. For each well 500 μl transfection solution was prepared, containing 8.4 μg siRNA and 21 μl Lipofectamin in OPTI-MEM I reduced serum medium (Gibco, Karlsruhe). The cells were incubated 5 hours with the transfection solution, then the medium was changed to RPMI/10% FCS complemented with Penicillin/Streptomycin. When treated several times, cells were counted ˜24 h following treatment, diluted to 1 Mio/ml and seeded again in a 6 well plate (1.5 ml cell suspension per well). Transfection was then repeated exactly as the day before.

The test system of a further series is M07p210/e14a2 cells. The series can be described thus: Induction of apoptosis by imatinib mesylate in M07p210/e14a2 cells. In kind it is cell-based, human. The settings on record: BAF7-treated.

The values below come from US7994307B2, “RNAi modulation of the BCR-ABL fusion gene and uses thereof” (Alnylam Pharmaceuticals, Inc., priority 2004, dated 2011).

“Also recorded” adds a separate entry of the source.

As usually defined, the viability is a per cent measure of how many cells are alive, often set against a control. A low value points to a greater loss of cells. Turning to “BAF7: siRNA duplex, sense SEQ ID No. 1, antisense SEQ ID No. 23, specific for Bcr-Abl-e14a2 (sense CAGAGUUCAAAAGCCCUUCAG; antisense CUGAAGGGCUUUUGAACUCUGCU; listed as RNA, chemistry not given here)”, the Bcr-Abl protein levels result in the series on p210Bcr-Abl (e14a2) (four consecutive treatments at intervals of 24 h) is listed as “reduced the amount of Bcr-Abl protein to the detection limit; also recorded: almost complete disappearance of Bcr-Abl protein”; in the series on p210Bcr-Abl (e14a2) (single siRNA treatment, Western blot) it was “notable reduction; also recorded: significant reduction”; with Bcr-Abl (e14a2), “significant reduction”. In addition, the “recovery of Bcr-Abl protein levels” value with p210Bcr-Abl (e14a2) (32Dp210Bcr-Abl (e14a2) cells, after one single treatment) is reported as “quickly recovered to pre-treatment levels”. Further, the viability entry is given as “virtual loss of viability; also recorded: virtually complete loss of viability” with 32Dp210/e14a2 cells (four treatments) and 45% in the series on K562 cells (K562, 48 hours following the third lipofection at intervals of 24 hours). The “viability relative to electroporation control cells (EPC, 100%)” value with 32Dp210/e14a2 cells (single treatment, MTT) is on record as “approximately 59%”. Also, the “viability relative to EPC” value in the series on 32Dp210/e14a2 cells (treated four times, MTT) is reported as at most 2.5%. The growth result in the series on K562 cells (K562, 48 hours following one single treatment, lipofectamin 2000) is “only a minimal growth reduction”. Moreover, the “induction of apoptosis by 0.05 μM imatinib mesylate in siRNA-treated cells” value in the series on M07p210/e14a2 cells is “significant induction of apoptosis”.
